Source: US20240246941A1, “SUBSTITUTED 4-(3-AMINOPROP-1-YL)AMINOQUINOLINE ANALOGS AS MODULATORS OF MELANOMA-ASSOCIATED ANTIGEN 11 UBIQUITIN LIGASE” (ST. JUDE CHILDREN'S RESEARCH HOSPITAL, INC., priority 2020, published 2024)

Target: interaction between GST-MAGEA11 MHD and FAM-PCF11_4 peptide (MAGE-A11:PCF11) (Homo sapiens (Human), UniProt P43364)
Experiment: TR-FRET dose response competition assay for disruption of MAGE-A11:PCF11 binding
Conditions: Dose response TR-FRET screening of nine scaffold groups against MAGE-A11:PCF11; read-out: consensus IC50
How it was run: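 Competition TR-FRET at room temperature in 50 mM Tris pH 7.5, 20 mM MgCl2, 0.1 mg/ml BSA, 1 mM DTT: final 5 nM GST-MAGEA11 MHD, 5 nM Tb-anti-GST, 200 nM FAM-PCF11_4, 90 min. Ratio 520/490 nm converted to % inhibition; IC50 from sigmoidal fit.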

Chain of interaction between GST-MAGEA11 MHD and FAM-PCF11_4 peptide (MAGE-A11:PCF11) (P43364 218-429): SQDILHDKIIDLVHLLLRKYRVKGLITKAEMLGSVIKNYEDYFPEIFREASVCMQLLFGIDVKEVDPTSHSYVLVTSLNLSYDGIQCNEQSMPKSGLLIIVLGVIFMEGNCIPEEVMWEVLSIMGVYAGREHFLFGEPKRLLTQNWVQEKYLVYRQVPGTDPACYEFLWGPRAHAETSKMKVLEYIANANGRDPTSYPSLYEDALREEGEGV

Compound	IC50 [µM]
Clc1cccc(Cl)c1Cc1ccc2c(NCCCNCc3cccc4c3OCO4)ccnc2c1 [SJ000311316-1]	11
COc1ccc(F)cc1CNCCCNc1ccnc2cc(CCC(C)C)ccc12 [SJ000311249-1]	69.9
CCn1c2ccccc2c2cc(CN3CCc4nnc(CNS(=O)(=O)C(C)C)n4CC3)ccc21 [SJ000307753-1]	69.9
CCCn1c(=O)[nH]c(=O)c2c1nc(-c1ccc(OC(F)F)cc1)n2CCN1CCOCC1 [SJ000377779-1]	69.9
FC(F)(F)c1cccc(Cc2ccc3c(NCCCNCc4cccc5c4OCO5)ccnc3c2)c1 [SJ000311300-1]	12.8
CCCCCn1c(-c2cccc(F)c2)nc2c1c(=O)[nH]c(=O)n2CCCC [SJ000460165-1]	69.9
CN(C)C(=O)Cn1cnc2cc(-c3ccccc3)sc2c1=O [SJ000425603-1]	69.9
CCC(CO)NC1=C(Cl)C(=O)c2ccccc2C1=O (stereo not drawn) [SJ000148678-1]	69.9
COc1cccc(CNCCCNc2ccnc3cc(Cc4ccc(F)cc4)ccc23)c1O [SJ000311243-1]	43.6
COc1ccc(-c2cc3ncn(CC(=O)O)c(=O)c3s2)cc1 [SJ000397503-1]	69.9
COc1cccc(CNCCCNc2ccnc3cc(-c4ccc(F)cc4)ccc23)c1O [SJ000311239-1]	33.3
Cc1cccc(NC2=C(N)C(=O)c3ccccc3C2=O)c1 [SJ000024934-1]	69.9
COc1ccc(-c2ccc3c(NCCCNCc4cccc(OC)c4O)ccnc3c2)cc1 [SJ000311295-1]	69.9
CCOC(=O)N1CCN(Cc2ccc3c(c2)c2ccccc2n3CC)CC1 [SJ000147352-1]	29.5
N#CCCn1cnc2cc(-c3ccc(F)cc3)sc2c1=O [SJ000458551-1]	69.9
COc1ccc(-c2ccc3c(NCCCNCc4cccc5c4OCO5)ccnc3c2)cc1 [SJ000311296-1]	69.9
COc1ccc(CNC(=O)Cn2cnc3cc(-c4ccc(Cl)cc4)sc3c2=O)cc1 [SJ000457620-1]	69.9
COc1ccc(F)cc1CNCCCNc1ccnc2cc(Oc3ccc(Cl)cc3)ccc12 [SJ000311229-1]	19.7
Cc1cc(C)c(CNCCCNc2ccnc3cc(Cl)ccc23)c(C)c1 [SJ000520911-2]	68.1
O=C(Cn1cnc2cc(-c3ccc(Cl)cc3)sc2c1=O)NCc1ccccc1F [SJ000455225-1]	69.9
COc1cc(Cc2ccc3c(NCCCNCc4cc(F)ccc4OC)ccnc3c2)cc(OC)c1 [SJ000311313-1]	33.8

Compound	IC50 [µM]
N#Cc1nc(-c2ccc(F)cc2)oc1N1CCOCC1 [SJ000011204-1]	69.9
CCn1c2ccccc2c2cc(CNCC(C)O)ccc21 (stereo not drawn) [SJ000505727-1]	69.9
COCCCn1c(-c2ccc(C#N)cc2)nc2c1c(=O)[nH]c(=O)n2Cc1ccccc1 [SJ000420075-1]	69.9
Cc1ccccc1NC1=C(N)C(=O)c2ccccc2C1=O [SJ000562551-1]	72.2
CC(C)(C)c1ccc(O)c(CNCCCNc2ccnc3cc(Cl)ccc23)c1 [SJ000311193-1]	30.4
CCCOc1ccc(C2Nc3ccccc3C(=O)N2CCCN2CCOCC2)cc1 (stereo not drawn) [SJ000803758-1]	72.1
COc1ccc(F)cc1CNCCCNc1ccnc2cc(C3CCCCC3)ccc12 [SJ000311265-1]	24.2
Fc1ccc(Cc2ccc3c(NCCCNCc4cccc5c4OCO5)ccnc3c2)cc1 [SJ000311244-1]	42.3
COc1ccc(CNCCCNc2ccnc3cc(Cl)ccc23)cc1O [SJ000311192-1]	69.9
FC(F)(F)c1cccc(CNCCCNc2ccnc3cc(Cl)ccc23)c1 [SJ000521024-1]	69.9
COCCCn1c(-c2cccc(Cl)c2)nc2c1c(=O)[nH]c(=O)n2Cc1ccccc1 [SJ000383944-1]	69.9
CCc1ccc(C2=C(c3ccc([N+](=O)[O-])cc3)C(=O)OC2)cc1 [SJ000368127-1]	69.9
C=CCOc1ccc(-c2nc3c(c(=O)[nH]c(=O)n3Cc3ccccc3)n2CCC)cc1Br [SJ000379301-1]	69.9
FC(F)(F)c1cc(-c2ccc3c(NCCCNCc4cccc5c4OCO5)ccnc3c2)cc(C(F)(F)F)c1 [SJ000311272-1]	9.02
O=[N+]([O-])c1ccc(CNCCCNc2ccnc3cc(Cl)ccc23)cc1O [SJ000311191-1]	69.9
CCc1ccc(-c2nc3c(c(=O)[nH]c(=O)n3CC(C)C)n2CCOC)cc1 [SJ000420343-1]	69.9
CCCN1C(=O)c2ccccc2NC1c1cccc(F)c1 (stereo not drawn) [SJ000288416-1]	69.9
Cn1c(-c2cccc(F)c2)nc2c1c(=O)[nH]c(=O)n2Cc1ccccc1 [SJ000387665-1]	69.9
COc1ccc(F)cc1CNCCCNc1ccnc2cc(Cc3cccc(C(F)(F)F)c3)ccc12 [SJ000311301-2]	22.1
CCCN1C(=O)c2ccccc2NC1c1ccc(C)cc1 (stereo not drawn) [SJ000288423-2]	69.9
CCCn1c(-c2ccc(Cl)cc2)nc2c1c(=O)[nH]c(=O)n2Cc1ccccc1 [SJ000375541-1]	69.9

Compound	IC50 [µM]
Clc1ccc2c(NCCCNCc3ccc4[nH]ccc4c3)ccnc2c1 [SJ000520909-2]	67.1
Oc1ccc(Br)c(CNCCCNc2ccnc3cc(Cl)ccc23)c1 [SJ000311194-1]	69.9
COC(=O)Cn1cnc2cc(-c3ccc(Cl)cc3)sc2c1=O [SJ000418500-1]	69.9
c1cc(CNCCCNc2ccnc3cc(C4CCCCC4)ccc23)c2c(c1)OCO2 [SJ000311264-1]	23.7
Cc1cccc(CNCCCNc2ccnc3cc(Cl)ccc23)c1 [SJ000523066-1]	69.9
COc1ccc(C)cc1Nc1nc(N)c2ccccc2n1 [SJ000201566-1]	69.9
CCCOc1ccc(-c2nc3c(c(=O)[nH]c(=O)n3Cc3ccccc3)n2CCO)cc1OCC [SJ000381474-1]	69.9
COc1cc2nc(N3CCN(C(=O)C4COc5ccccc5O4)CC3)nc(N)c2cc1OC (stereo not drawn) [SJ000113084-10]	57.1
Cc1cc(C)nc(Nc2nc(N)c3ccccc3n2)n1 [SJ000189299-1]	69.9
CCOP(=O)(OCC)c1nc(-c2ccc(Cl)cc2)oc1N1CCOCC1 [SJ000090230-1]	69.9
COc1cccc(CNCCCNc2ccnc3cc(CC(C)C)ccc23)c1O [SJ000311259-1]	68.5
CC(=O)N(C)C1=C(Cl)C(=O)c2ccccc2C1=O [SJ000290718-2]	69.9
CCCCCOc1ccc(NC2=C(N)C(=O)c3ccccc3C2=O)cc1 [SJ000032723-1]	69.9
CCN(CC)C(=O)Cn1cnc2cc(-c3ccccc3)sc2c1=O [SJ000425666-1]	69.9
CC(=O)NC1=C(Cl)C(=O)c2ccccc2C1=O [SJ000067071-3]	69.9
Cn1c2ccccc2c2cc(C(=O)N3CCc4nncn4CC3)ccc21 [SJ000307416-1]	69.9
C=CCOc1ccc(-c2nc3c(c(=O)[nH]c(=O)n3CCC)n2CCCC)cc1 [SJ000378878-1]	69.9
O=C(CNC(=O)c1ccc2[nH]c3ccccc3c2c1)NCCO [SJ000031064-1]	69.9
CCn1c2ccccc2c2cc(CN3CCc4nnc(C(C)NC(=O)CCOC)n4CC3)ccc21 (stereo not drawn) [SJ000307915-1]	69.9
OCCNCCNCc1ccc2[nH]c3ccccc3c2c1 [SJ000053962-1]	69.9

Same assay, conditions: Table 5, dose response TR-FRET screening of 59 quinoline compounds against MAGE-A11:PCF11; read-out: TR-FRET IC50

Compound	IC50 [µM]
Clc1ccc(CN(CCCCNc2ccnc3cc(Cl)ccc23)Cc2ccccc2)c(Cl)c1 [SJ000361207-2]	> 70
FC(F)(F)Oc1ccc(CN(CCCCNc2ccnc3cc(Cl)ccc23)Cc2ccccc2)cc1 [SJ000520451-1]	> 70
CC(C)(C)c1ccc(Oc2ccc3c(NCCCNCc4ccco4)ccnc3c2)cc1 [SJ000311234-1]	32.1

Same assay, conditions: Table 6, 4-aminoquinoline compounds; read-out: TR-FRET, IC50

Compound	IC50 [µM]
c1ccc(-c2ccc3c(NCCCNCc4cccc5c4OCO5)ccnc3c2)cc1 [SJ000311284-01]	20.6

Same assay, conditions: Table 8, representative compounds; read-out: TR-FRET IC50

Compound	IC50 [µM]
FC(F)(F)c1ccc2c(NCCCNCc3ccccc3C(F)(F)F)ccnc2c1 [SJ000521049]	69.9
COc1cccc(F)c1CNCCCNc1ccnc2cc(C(F)(F)F)ccc12 [SJ000521051]	69.9
FC(F)(F)c1cccc(CNCCCNc2ccnc3cc(C(F)(F)F)ccc23)c1 [SJ000521047]	69.9
Oc1ccc(Br)c(CNCCCNc2ccnc3cc(Cl)ccc23)c1 [SJ000311194]	69.9
COc1ccc(F)cc1CNCCCNc1ccnc2cc(Oc3ccc(C(C)(C)C)cc3)ccc12 [SJ000311237]	6.29
Fc1cccc(CNCCCNc2ccnc3cc(Cl)ccc23)c1 [SJ000523061]	69.9
CN(C)c1cccc(Oc2ccc3c(NCCCNCc4cccc5c4OCO5)ccnc3c2)c1 [SJ000311232]	69.9
FC(F)(F)c1cc(-c2ccc3c(NCCCNCc4cccc5c4OCO5)ccnc3c2)cc(C(F)(F)F)c1 [SJ000311272]	9.02
COc1ccc(Oc2ccc3c(NCCCNCc4cccc(OC)c4O)ccnc3c2)cc1 [SJ000311219]	29.1
COc1ccc(Oc2ccc3c(NCCCNCc4cc(F)ccc4OC)ccnc3c2)cc1 [SJ000311221]	46.5
COc1cccc(CNCCCNc2ccnc3cc(CC4CCCCC4)ccc23)c1O [SJ000311251]	29.2
c1ccc(CCc2ccc3c(NCCCNCc4cccc5c4OCO5)ccnc3c2)cc1 [SJ000311257]	62.3
COc1cccc(CNCCCNc2ccnc3cc(-c4ccc(C(F)(F)F)cc4)ccc23)c1O [SJ000311279]	9.52
Clc1ccc(Oc2ccc3c(NCCCNCc4cccc5c4OCO5)ccnc3c2)cc1 [SJ000311228]	17.7
c1ccc(-c2ccc3c(NCCCNCc4cccc5c4OCO5)ccnc3c2)cc1 [SJ000311284-01]	22.2
COc1ccc(F)cc1CNCCCNc1ccnc2cc(-c3ccccc3)ccc12 [SJ000311285]	28.2
COc1cccc(CNCCCNc2ccnc3cc(-c4ccc5c(c4)OCO5)ccc23)c1O [SJ000311291]	24.6

Same assay, conditions: read-out: IC50 by TR-FRET for disrupting MAGE-A11:PCF11 interaction

Compound	IC50 [µM]
c1ccc(-c2ccc3c(NCCCNCc4cccc5c4OCO5)ccnc3c2)cc1 [SJ000311284-01]	20.6
